# Measurements as given in ChEMBL document CHEMBL4414605 (J Med Chem, 2019).
# How the values were obtained:
# D(2) dopamine receptor [1] = target: T1, D(2) dopamine receptor (Homo sapiens, UniProt P14416)
# Description: Displacement of PPHT-red from SNAP-tagged human D2LR expressed in CHOK1 cell membranes assessed as dissociation rate constant by TR-FRET assay
# D(2) dopamine receptor [2] = target: T1, D(2) dopamine receptor; remark: listed apart in the source
# Description: Displacement of PPHT-red from SNAP-tagged human D2LR expressed in CHOK1 cell membranes assessed as association rate constant by TR-FRET assay
# D(2) dopamine receptor [3] = target: T1, D(2) dopamine receptor; remark: listed apart in the source
# Description: Displacement of PPHT-red from SNAP-tagged human D2LR expressed in CHOK1 cell membranes assessed as dissociation half-life by TR-FRET assay
# D(2) dopamine receptor [4] = target: T1, D(2) dopamine receptor; remark: listed apart in the source
# Description: Binding affinity to SNAP-tagged human D2LR expressed in CHOK1 cell membranes assessed as association rate constant by TR-FRET assay
# D(2) dopamine receptor [5] = target: T1, D(2) dopamine receptor; remark: listed apart in the source
# Description: Binding affinity to SNAP-tagged human D2LR expressed in CHOK1 cell membranes assessed as dissociation rate constant by TR-FRET assay
# D(2) dopamine receptor [6] = target: T1, D(2) dopamine receptor; settings: 10 min, read-out: INH
# T1 sequence (P14416 whole entry): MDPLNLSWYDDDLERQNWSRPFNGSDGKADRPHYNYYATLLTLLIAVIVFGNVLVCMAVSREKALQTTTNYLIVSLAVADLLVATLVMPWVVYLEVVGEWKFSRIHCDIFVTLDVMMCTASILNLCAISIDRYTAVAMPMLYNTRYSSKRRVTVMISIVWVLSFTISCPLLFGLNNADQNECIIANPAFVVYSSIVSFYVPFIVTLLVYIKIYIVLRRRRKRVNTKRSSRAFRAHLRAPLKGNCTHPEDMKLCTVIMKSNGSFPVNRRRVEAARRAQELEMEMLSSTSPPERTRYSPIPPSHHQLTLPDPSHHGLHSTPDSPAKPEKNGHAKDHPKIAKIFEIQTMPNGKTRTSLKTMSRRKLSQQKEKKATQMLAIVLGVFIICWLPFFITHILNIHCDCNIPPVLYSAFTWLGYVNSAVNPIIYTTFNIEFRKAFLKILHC
Structure (SMILES),Kdiss (D(2) dopamine receptor [1]) [s⁻¹],Ka (D(2) dopamine receptor [2]),T1/2 (D(2) dopamine receptor [3]) [s],Ka (D(2) dopamine receptor [4]) [×10⁶ /M/min],Kdiss (D(2) dopamine receptor [5]) [s⁻¹],inhibition at 10 µM (D(2) dopamine receptor [6]) [%]
O=C(CCCN1CCC(O)(c2cc(Cl)ccc2Cl)CC1)c1ccc(F)cc1,0.00933,5.29 ×10⁸ /M/min,76.2,,,
O=C(CCCN1CCC(O)(c2ccc(Cl)cc2)CC1)c1ccccc1F,0.0173,,41.4,,,
O=C(CCCN1CCC(O)(c2cccc(Cl)c2Cl)CC1)c1ccc(F)cc1,0.005,2.2 ×10⁹ /M/min,137,,,
O=C(CCCN1CCC(O)(c2ccc(Cl)cc2)CC1)c1ccccc1,0.0187,6.33 ×10⁸ /M/min,40.2,,,
O=C(CCCN1CCC(c2ccc(Cl)cc2)CC1)c1ccc(F)cc1,0.014,4.31 ×10⁸ /M/min,51.6,,,
OC1(c2ccc(Cl)cc2)CCN(CCCCCc2ccc(F)cc2)CC1,0.0203,5.51 ×10⁷ /M/min,36,,,
O=C(CCCN1CCC(O)(c2cccc(Cl)c2)CC1)c1ccc(F)cc1,0.0107,6.32 ×10⁸ /M/min,71.4,,,
Cc1ccccc1C(=O)CCCN1CCC(O)(c2ccc(Cl)cc2)CC1,0.0138,3.66 ×10⁸ /M/min,60.6,,,
O=C(CCCN1CCC(O)(c2c(Cl)cccc2Cl)CC1)c1ccc(F)cc1,0.0175,5.07 ×10⁸ /M/min,40.2,,,
O=C(CCCN1CCN(c2ccc(Cl)cc2)CC1)c1ccc(F)cc1,0.0133,2.86 ×10⁷ /M/min,53.4,,,
O=C(CCCN1CCC(O)(c2ccc(Cl)cc2)CC1)c1ccccc1Cl,0.0185,3.16 ×10⁸ /M/min,45.6,,,
CCCN(CCc1ccccc1)C1CCc2c(O)cccc2C1 (racemic),,,,9.21,0.00583,
OC1(c2ccc(Cl)cc2)CCN(CCCCc2ccc(F)cc2)CC1,0.0185,1.57 ×10⁸ /M/min,37.8,,,
O=C(CCCN1CCC(O)(c2ccccc2)CC1)c1ccccc1,0.0118,2.28 ×10⁷ /M/min,58.8,,,
O=C(CCCN1CCC(O)(c2ccc(Cl)cc2)CC1)c1ccc(F)c(F)c1,0.0172,,45,,,
O=C(CCCN1CCC(O)(c2ccccc2Cl)CC1)c1ccc(F)cc1,0.0193,3.54 ×10⁸ /M/min,36.6,,,
OC1(c2ccc(Cl)cc2)CCN(CC/C=C\c2ccc(F)cc2)CC1,0.0208,3.35 ×10⁷ /M/min,34.8,,,
O=C(CCCN1CCC2(c3ccc(Cl)cc3)CC2C1)c1ccc(F)cc1 (stereo unspecified),0.005,2.03 ×10⁹ /M/min,141,,,
Cc1ccc(C2(O)CCN(CCCC(=O)c3ccc(F)cc3)CC2)cc1,0.0163,1 ×10⁹ /M/min,43.8,,,
O=C(CCCN1CCC(O)(c2ccc(C(F)(F)F)cc2)CC1)c1ccc(F)cc1,0.0103,1.36 ×10⁹ /M/min,67.2,,,
OC1(c2ccc(Cl)cc2)CCN(CC#Cc2ccc(F)cc2)CC1,0.016,3.37 ×10⁶ /M/min,46.2,,,
O=C(CCN1CCC(O)(c2ccc(Cl)cc2)CC1)c1ccc(F)cc1,0.0212 to 0.0325,1.03 to 1.33 ×10⁷ /M/min,25.8 to 34.2,,,
COC1(c2ccc(Cl)cc2)CCN(CCCC(=O)c2ccc(F)cc2)CC1,0.0113,3.6 ×10⁸ /M/min,61.8,,,
OC1(c2ccc(Cl)cc2)CCN(CC[C@H]2C[C@H]2c2ccc(F)cc2)CC1 (racemic),0.0228,4.47 ×10⁷ /M/min,30.6,,,
O=C(CCCN1CCC(O)(c2ccc(Cl)cc2)CC1)c1ccc(F)cc1F,0.0227,1.07 ×10⁷ /M/min,30.6,,,
O=C(CCCN1CCC(O)(c2ccc(Cl)cc2)CC1)c1cc(F)ccc1F,0.019 to 0.0248,1.13 to 1.15 ×10⁷ /M/min,34.8 to 37.8,,,

Structure (SMILES),Kdiss (D(2) dopamine receptor [1]) [s⁻¹],Ka (D(2) dopamine receptor [2]),T1/2 (D(2) dopamine receptor [3]) [s],Ka (D(2) dopamine receptor [4]) [×10⁶ /M/min],Kdiss (D(2) dopamine receptor [5]) [s⁻¹],inhibition at 10 µM (D(2) dopamine receptor [6]) [%]
O=C(CCCN1CCC(O)(c2ccccc2)CC1)c1ccc(F)cc1,0.017,1.22 ×10⁸ /M/min,42.6,,,
O=C(CCCN1CCC(c2ccccc2)CC1)c1ccc(F)cc1,0.0118,8.99 ×10⁷ /M/min,59.4,,,20
OC1(c2ccc(Cl)cc2)CCN(CCCc2ccc(F)cc2)CC1,0.0222 to 0.0257,2.29 to 2.45 ×10⁷ /M/min,27.6 to 34.2,,,
O=C(CCCN1[C@@H]2CC[C@H]1CC(O)(c1ccc(Cl)cc1)C2)c1ccc(F)cc1 (stereo partly specified),0.00317,3.68 ×10⁹ /M/min,215,,,
CN(C)c1ccc(C2(O)CCN(CCCC(=O)c3ccc(F)cc3)CC2)cc1,0.0208,1.64 ×10⁸ /M/min,33.6,,,
OC1(c2ccc(Cl)cc2)CCN(CC[C@H]2C[C@@H]2c2ccc(F)cc2)CC1 (racemic),0.0153,6.07 ×10⁸ /M/min,49.2,,,
O=C(CCCN1CCC(O)(c2ccc(Cl)cc2)CC1)c1ccc(Cl)cc1,0.0117,1.38 ×10⁸ /M/min,60,,,
O=C(CCCN1CCC(O)(c2cc(Cl)cc(Cl)c2)CC1)c1ccc(F)cc1,0.00717,6.58 ×10⁸ /M/min,116,,,
OC1(c2ccc(Cl)cc2)CCN(CC/C=C/c2ccc(F)cc2)CC1,0.0127,6.39 ×10⁷ /M/min,44.4,,,
OC1(c2ccc(Cl)cc2)CCN(CCC#Cc2ccc(F)cc2)CC1,0.0183,1.61 ×10⁷ /M/min,41.4,,,
O=C(CCCN1CCC(O)(c2ccc(F)cc2)CC1)c1ccc(Cl)cc1,0.0128,4.17 ×10⁷ /M/min,54.6,,,
O=C(CCCN1CC=C(c2ccc(Cl)cc2)CC1)c1ccc(F)cc1,0.0108,6.52 ×10⁷ /M/min,65.4,,,
O=C(CCCN1CCC(O)(c2ccc(F)cc2)CC1)c1ccc(F)cc1,0.013,2.61 ×10⁸ /M/min,55.2,,,
OC(CCCN1CCC(O)(c2ccc(Cl)cc2)CC1)c1ccc(F)cc1 (stereo unspecified),0.0095,6.19 ×10⁶ /M/min,75,,,
O=C(CCCN1CCC(O)(c2ccc(Cl)c(Cl)c2)CC1)c1ccc(F)cc1,0.007,2.95 ×10⁹ /M/min,100,,,
OC1(c2ccc(Cl)cc2)CCN(CCCSc2ccc(F)cc2)CC1,0.0165,4.99 ×10⁸ /M/min,44.4,,,
O=C(CCCCN1CCC(O)(c2ccc(Cl)cc2)CC1)c1ccc(F)cc1,0.0275 to 0.0392,1.42 to 1.8 ×10⁸ /M/min,18 to 28.8,,,
O=C(CCCN1CCC(O)(c2ccccc2-c2ccccc2Cl)CC1)c1ccc(F)cc1,0.0137,3.25 ×10⁸ /M/min,53.4,,,
O=C(CCCN1CCC(O)(c2ccc(Cl)cc2)CC1)c1c(F)cccc1F,0.0182,1.84 ×10⁷ /M/min,39.6,,,
OC1(c2ccc(Cl)cc2)CCN(CCCC#Cc2ccc(F)cc2)CC1,0.0192,6.41 ×10⁷ /M/min,39,,,
O=C(CCCN1CCC(O)(c2ccc(Cl)cc2)CC1)c1cc(F)cc(F)c1,0.0153,4.25 ×10⁶ /M/min,47.4,,,
O=C(CCCN1CCC(O)(c2ccc(Cl)cc2Cl)CC1)c1ccc(F)cc1,0.0117,2.87 ×10⁸ /M/min,69,,,
O=C(CCCN1CCC(O)(c2ccc(Cl)cc2)CC1)c1cccc(F)c1,0.016 to 0.018,2.55 to 2.64 ×10⁷ /M/min,42 to 45.6,,,
O=C(CCCN1CCC(O)(c2ccc(Cl)cc2)CC1)c1cccc(F)c1F,0.0215 to 0.0283,3.01 to 3.24 ×10⁷ /M/min,24.6 to 36,,,
OC1(c2ccc(Cl)cc2)CCN(CCCOc2ccc(F)cc2)CC1,0.0152,1.22 ×10⁹ /M/min,48.6,,,
